Holding throughout (format): cell-based
One assay deals with T1, JAK3 (Homo sapiens, UniProt P52333).
T1 construct: endogenous in cells; host or cells: MHH-CALL-4
T1 sequence (P52333 1-1124): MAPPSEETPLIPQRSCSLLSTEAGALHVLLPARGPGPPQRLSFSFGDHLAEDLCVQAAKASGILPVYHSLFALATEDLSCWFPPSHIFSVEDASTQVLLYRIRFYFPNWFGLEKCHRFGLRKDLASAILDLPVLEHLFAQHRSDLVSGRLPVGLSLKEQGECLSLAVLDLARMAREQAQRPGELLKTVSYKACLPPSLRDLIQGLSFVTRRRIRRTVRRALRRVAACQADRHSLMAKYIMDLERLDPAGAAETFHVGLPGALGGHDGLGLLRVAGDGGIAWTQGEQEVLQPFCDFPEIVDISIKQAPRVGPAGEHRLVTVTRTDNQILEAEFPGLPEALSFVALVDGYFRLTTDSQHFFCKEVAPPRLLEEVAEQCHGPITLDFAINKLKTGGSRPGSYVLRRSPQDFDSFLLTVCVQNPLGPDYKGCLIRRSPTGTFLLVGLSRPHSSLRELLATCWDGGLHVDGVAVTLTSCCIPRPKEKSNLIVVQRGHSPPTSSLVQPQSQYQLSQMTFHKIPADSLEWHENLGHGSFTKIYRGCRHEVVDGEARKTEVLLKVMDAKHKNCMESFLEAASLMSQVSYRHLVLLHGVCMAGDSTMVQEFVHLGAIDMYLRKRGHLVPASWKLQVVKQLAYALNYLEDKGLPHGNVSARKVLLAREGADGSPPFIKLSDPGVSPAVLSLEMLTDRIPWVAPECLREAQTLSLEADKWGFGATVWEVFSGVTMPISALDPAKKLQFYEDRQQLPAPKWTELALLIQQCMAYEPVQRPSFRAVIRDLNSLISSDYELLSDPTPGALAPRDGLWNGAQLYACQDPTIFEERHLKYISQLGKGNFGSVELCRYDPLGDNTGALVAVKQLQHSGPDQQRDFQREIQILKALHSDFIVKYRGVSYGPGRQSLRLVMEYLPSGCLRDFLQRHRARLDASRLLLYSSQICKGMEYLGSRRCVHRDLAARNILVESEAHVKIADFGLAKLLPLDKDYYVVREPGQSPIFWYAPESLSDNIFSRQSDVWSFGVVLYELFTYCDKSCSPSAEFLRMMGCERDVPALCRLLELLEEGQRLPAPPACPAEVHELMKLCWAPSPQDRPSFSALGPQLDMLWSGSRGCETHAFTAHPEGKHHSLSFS
Description: Western blot assay, JAK3 protein degradation. The note with it: MHHCALL4; 100 nM, 24 h; MHH-CALL-4 cells; vehicle control = 100%; read-out: Target Protein Degradation (% remaining at 100 nM, 24 h) JAK3. As for the experimental part:
(§1) Western blot assay: MHH-CALL-4 Cells were washed twice with ice-cold PBS and lysed in RIPA lysis buffer (Sigma) freshly supplemented with Halt™ Protease Inhibitor Cocktail (ThermoFisher) for 15 minutes on ice. The cell pellet was removed by centrifugation at 13,000 g at 4° C. for 15 minutes. Protein concentration was measured by BCA assay (Thermo Fisher Scientific). Proteins were denatured in NuPAGE LDS 4× sample buffer supplemented with reducing agents (Invitrogen). Typically, 10-20 μg of total protein was loaded per lane on a 4%-12% NUPAGE Bis-Tris gradient gel (Invitrogen) and analyzed by standard immunoblotting and imaged using Li—COR Odyssey CLx (LI-COR Biotechnology, Lincoln, NE). To access the protein degradation, the signal of target protein was normalized by the signal of ACBT and the signal of vehicle control was set as 100%. Primary antibodies used were: JAK1 (Cell Signaling #3332S), JAK2 (#3230S), JAK3 (#8827S), TYK2 (#9312S), GSPT1 (#14980S), CRBN (#71810S), IKZF1 (Santa Cruz Biotechnology, SC-398265) and ACBT (Santa Cruz Biotechnology, SC-47778).
Background: Immunoblotting shows a protein as a band on a membrane.

Another assay concerns the target T2, JAK1 (Homo sapiens, UniProt P23458).
T2 construct: endogenous in cells; host or cells: MHH-CALL-4
In words: Western blot assay, JAK1 protein degradation. The note with it: MHH-CALL-4 cells, vehicle control = 100%. As for the experimental part: as §1

The next assay deals with T3, GSPT1 (Homo sapiens, UniProt P15170).
T3 construct: endogenous in cells; host or cells: MHH-CALL-4
T3 sequence (P15170 whole entry): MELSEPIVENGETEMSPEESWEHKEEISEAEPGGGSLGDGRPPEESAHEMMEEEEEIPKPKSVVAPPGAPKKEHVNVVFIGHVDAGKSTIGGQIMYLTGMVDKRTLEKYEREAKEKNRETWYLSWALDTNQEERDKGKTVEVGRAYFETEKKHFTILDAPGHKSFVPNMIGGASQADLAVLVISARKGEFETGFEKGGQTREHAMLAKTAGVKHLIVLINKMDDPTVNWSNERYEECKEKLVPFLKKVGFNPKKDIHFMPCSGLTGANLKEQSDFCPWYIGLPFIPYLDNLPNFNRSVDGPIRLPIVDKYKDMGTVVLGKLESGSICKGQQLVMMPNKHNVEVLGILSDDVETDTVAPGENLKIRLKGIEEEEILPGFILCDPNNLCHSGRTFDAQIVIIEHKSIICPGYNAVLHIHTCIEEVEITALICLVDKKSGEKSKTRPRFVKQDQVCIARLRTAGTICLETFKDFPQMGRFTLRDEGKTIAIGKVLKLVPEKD
In words: Western blot assay, GSPT1 neosubstrate degradation. The conditions noted are these: MHHCALL4; 100 nM, 24 h; MHH-CALL-4 cells; vehicle control = 100%. As for the experimental part: as §1

For a further assay, the system named is JAK2. Description: Western blot assay, JAK2 protein degradation. The note with it: MHH-CALL-4 cells, vehicle control = 100%. As for the experimental part:
as §1

A further assay concerns MHH-CALL-4 cells. In words: Cytotoxicity assay (resazurin, 72 hours). More on the design: AUC: unit not given beside the values. The conditions noted are these: for pEC50: MHHCALL4, resazurin; for AUC: area under the dose-response curve. Here is the method:
Cytotoxicity assay: MHH-CALL-4 cells were maintained in RPMI1640 medium (Invitrogen) supplemented with 10% FBS (Hyclone), Penicillin/Streptomycin (100 units/mL) and Glutamine (100 μM). 2×10^5 cells were seeded in 100 μl medium/well in 96 well assay plates (Corning 3603). Assays were performed in triplicate; compounds to be screened were added to assay plates from DMSO stock solutions by pin transfer using 50SS pins (V&P Scientific). The assay plates incubated at 37° C. in 5% CO2 for 72 hours. Cells were then incubated for four hours with resazurin (Sigma) solution and read on a Synergy HT plate reader (Biotek, Winooski, VT). High-throughput assay data was analyzed using our in-house Robust Interpretation of Screening Experiments (RISE) application written in Pipeline Pilot (Biovia, v. 17.2.0) and the R program (R Core Team, 2013). All the AUC (area under the dose-response curve) per compound calculated from its dose response curve by RISE protocol. Selected data were plotted and analyzed by GraphPad Prism software v7 using non-linear regression curve fitting.
(In general: Alamar Blue is a resazurin reagent that responds to reducing activity.)

pEC50: −log10 of the molar value.

T2 sequence (P23458 whole entry): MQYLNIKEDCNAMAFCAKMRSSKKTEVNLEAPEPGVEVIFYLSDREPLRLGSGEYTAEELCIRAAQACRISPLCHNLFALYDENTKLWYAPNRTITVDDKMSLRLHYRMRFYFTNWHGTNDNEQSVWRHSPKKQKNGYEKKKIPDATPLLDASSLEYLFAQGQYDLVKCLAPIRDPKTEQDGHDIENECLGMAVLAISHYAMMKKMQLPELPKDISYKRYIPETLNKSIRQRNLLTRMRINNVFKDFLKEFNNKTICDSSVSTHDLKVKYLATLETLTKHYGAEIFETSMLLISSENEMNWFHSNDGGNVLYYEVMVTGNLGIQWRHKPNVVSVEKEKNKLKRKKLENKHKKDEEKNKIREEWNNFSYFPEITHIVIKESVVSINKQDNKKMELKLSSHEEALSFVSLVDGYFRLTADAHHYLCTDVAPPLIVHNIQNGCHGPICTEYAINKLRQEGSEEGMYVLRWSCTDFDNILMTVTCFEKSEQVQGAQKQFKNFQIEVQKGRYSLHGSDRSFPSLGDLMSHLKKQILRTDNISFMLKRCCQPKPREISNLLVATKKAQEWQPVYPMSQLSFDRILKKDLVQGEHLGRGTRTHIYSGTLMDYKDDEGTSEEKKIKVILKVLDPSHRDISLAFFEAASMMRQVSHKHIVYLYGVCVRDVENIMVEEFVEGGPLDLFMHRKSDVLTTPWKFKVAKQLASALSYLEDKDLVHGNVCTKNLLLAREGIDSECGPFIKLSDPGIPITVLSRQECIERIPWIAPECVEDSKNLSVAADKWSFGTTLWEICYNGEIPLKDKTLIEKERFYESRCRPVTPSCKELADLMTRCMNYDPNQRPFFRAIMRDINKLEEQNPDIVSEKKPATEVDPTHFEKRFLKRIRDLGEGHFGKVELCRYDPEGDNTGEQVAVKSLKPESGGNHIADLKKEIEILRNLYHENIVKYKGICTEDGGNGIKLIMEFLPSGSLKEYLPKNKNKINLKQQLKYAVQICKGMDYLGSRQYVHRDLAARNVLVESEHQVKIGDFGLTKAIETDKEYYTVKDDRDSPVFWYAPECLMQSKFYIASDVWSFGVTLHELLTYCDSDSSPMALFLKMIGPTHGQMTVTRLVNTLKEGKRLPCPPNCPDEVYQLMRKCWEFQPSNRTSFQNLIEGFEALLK

With `CCS(=O)(=O)N1CC(CC#N)(n2cc(-c3nc(Nc4ccc(C(=O)NCCCCCCNc5ccc(C6CCC(=O)NC6=O)cc5)cc4)nc4[nH]ccc34)cn2)C1` (centres unmarked) [Compound 1], the remaining activity at 0.1 µM on JAK3 worked out at 37%. In addition, the “Target Protein Degradation (% remaining at 100 nM, 24 h) JAK1” value at JAK1 came out at 128 % remaining. Further, the remaining activity at 0.1 µM on GSPT1 stood at 84%. Moreover, in the assay with JAK2, the “Target Protein Degradation (% remaining at 100 nM, 24 h) JAK2” value is reported as 34 % remaining. In the assay with MHH-CALL-4 cells, the pEC50 (as a rule, −log10 of the EC50, conventionally taken in molar units) is 9.10 and the AUC came out at 231.

In the case of `CCS(=O)(=O)N1CC(CC#N)(n2cc(-c3nc(Nc4ccc(C(=O)NCCCCCCNc5cccc(C6CCC(=O)NC6=O)c5)cc4)nc4[nH]ccc34)cn2)C1` (centres unmarked) [Compound 3], the remaining activity at 0.1 µM on JAK3 was determined as 79%; at GSPT1 it was 84%. For the same molecule, at JAK1, the “Target Protein Degradation (% remaining at 100 nM, 24 h) JAK1” value worked out at 94 % remaining. For the same molecule, the “Target Protein Degradation (% remaining at 100 nM, 24 h) JAK2” value in the assay with JAK2 is on record as 56 % remaining. Besides, the pEC50 in the assay with MHH-CALL-4 cells is 8.77. Further, the AUC in the assay on MHH-CALL-4 cells is 248.

For the molecule `CCS(=O)(=O)N1CC(CC#N)(n2cc(-c3nc(Nc4ccc(C(=O)NCCCCNc5cccc(C6CCC(=O)NC6=O)c5)cc4)nc4[nH]ccc34)cn2)C1` (centres unmarked) [Compound 4], the remaining activity at 0.1 µM at JAK3 was 44%. In addition, on JAK1, the “Target Protein Degradation (% remaining at 100 nM, 24 h) JAK1” value is reported as 17 % remaining. For the same molecule, on GSPT1, the remaining activity at 0.1 µM worked out at 124%. For the same molecule, the “Target Protein Degradation (% remaining at 100 nM, 24 h) JAK2” value in the assay with JAK2 is on record as 30 % remaining. In the assay on MHH-CALL-4 cells, the negative-log EC50 (pEC50) is 8.68 and the AUC amounted to 120.

With `CCS(=O)(=O)N1CC(CC#N)(n2cc(-c3nc(Nc4ccc(C(=O)NCCCCCNc5cccc(C6CCC(=O)NC6=O)c5)cc4)nc4[nH]ccc34)cn2)C1` (centres unmarked) [Compound 6], the remaining activity at 0.1 µM on JAK3 worked out at 54%. Further, the “Target Protein Degradation (% remaining at 100 nM, 24 h) JAK1” value at JAK1 stood at 44 % remaining. In addition, in the assay with JAK2, the “Target Protein Degradation (% remaining at 100 nM, 24 h) JAK2” value came to 37 % remaining. In the assay on MHH-CALL-4 cells, the pEC50 was 8.23 and the AUC stood at 136.

In the case of `CCS(=O)(=O)N1CC(CC#N)(n2cc(-c3nc(Nc4ccc(C(=O)NCCCCCNc5ccc(C6CCC(=O)NC6=O)cc5)cc4)nc4[nH]ccc34)cn2)C1` (centres unmarked) [Compound 7], the remaining activity at 0.1 µM on JAK3 stood at 50%; on GSPT1 it was 63%. Further, the “Target Protein Degradation (% remaining at 100 nM, 24 h) JAK1” value on JAK1 stood at 78 % remaining. For the same molecule, in the assay with JAK2, the “Target Protein Degradation (% remaining at 100 nM, 24 h) JAK2” value amounted to 29 % remaining. In the assay with MHH-CALL-4 cells, the pEC50 was 7.86. The AUC with MHH-CALL-4 cells is reported as 248.

Consider `CCS(=O)(=O)N1CC(CC#N)(n2cc(-c3nc(Nc4ccc(C(=O)NCCOCCOc5ccc(C6CCC(=O)NC6=O)cc5)cc4)nc4[nH]ccc34)cn2)C1` (centres unmarked) [Compound 11], for which the remaining activity at 0.1 µM at JAK3 was determined as 70%; on GSPT1, 130%. Also, at JAK1, the “Target Protein Degradation (% remaining at 100 nM, 24 h) JAK1” value was 110 % remaining. In the assay with JAK2, the “Target Protein Degradation (% remaining at 100 nM, 24 h) JAK2” value turned out to be 90 % remaining. Moreover, in the assay with MHH-CALL-4 cells, the pEC50 was under 5.00.

For the molecule `CCS(=O)(=O)N1CC(CC#N)(n2cc(-c3nc(Nc4ccc(C(=O)NCCN5CCC(c6ccc7c(c6)CN(C6CCC(=O)NC6=O)C7=O)CC5)cc4)nc4[nH]ccc34)cn2)C1` (centres unmarked) [Compound 35, 4-((4-(1-(3-(cyanomethyl)-1-(ethylsulfonyl)azetidin-3-yl)-1H-pyrazol-4-yl)-7H-pyrrolo[2,3-d]pyrimidin-2-yl)amino)-N-(2-(4-(2-(2,6-dioxopiperidin-3-yl)-1-oxoisoindolin-5-yl)piperidin-1-yl)ethyl)benzamide], the remaining activity at 0.1 µM on JAK3 came to 51%. Besides, at GSPT1, the remaining activity at 0.1 µM turned out to be 116%. In addition, the “Target Protein Degradation (% remaining at 100 nM, 24 h) JAK2” value in the assay on JAK2 is on record as 33 % remaining. In addition, in the assay with MHH-CALL-4 cells, the pEC50 was 7.66 and the AUC turned out to be 223.

Take `N#CC[C@H](C1CCCC1)n1cc(-c2nc(Nc3ccc(C(=O)NCCCN4CCN(c5ccc(C6CCC(=O)NC6=O)cc5)CC4)cc3)nc3[nH]ccc23)cn1` (stereo partly drawn) [Compound 38, 4-((4-(1-((R)-2-cyano-1-cyclopentylethyl)-1H-pyrazol-4-yl)-7H-pyrrolo[2,3-d]pyrimidin-2-yl)amino)-N-(3-(4-(4-(2,6-dioxopiperidin-3-yl)phenyl)piperazin-1-yl)propyl)benzamide]: the results for the remaining activity at 0.1 µM at JAK3 and on GSPT1 were 41% and 99%, respectively. In addition, the “Target Protein Degradation (% remaining at 100 nM, 24 h) JAK2” value in the assay with JAK2 is 48 % remaining. Further, the negative logarithm of the EC50 (pEC50) in the assay with MHH-CALL-4 cells was 8.59. Further, the AUC in the assay on MHH-CALL-4 cells stood at 122.

As to `CCCn1cc(-c2nc(Nc3ccc(C(=O)NCCCCOc4ccc(C5CCC(=O)NC5=O)cc4)cc3)nc3[nH]ccc23)cn1` (centres unmarked) [Compound 43, N-(4-(4-(2,6-dioxopiperidin-3-yl)phenoxy)butyl)-4-((4-(1-propyl-1H-pyrazol-4-yl)-7H-pyrrolo[2,3-d]pyrimidin-2-yl)amino)benzamide], the remaining activity at 0.1 µM on JAK3 came to 79%; on GSPT1, 37%. Moreover, on JAK1, the “Target Protein Degradation (% remaining at 100 nM, 24 h) JAK1” value stood at 123 % remaining. For the same molecule, the “Target Protein Degradation (% remaining at 100 nM, 24 h) JAK2” value in the assay with JAK2 came out at 76 % remaining.

For `CCCn1cc(-c2nc(Nc3ccc(C(=O)NCCCN4CCN(c5ccc(C6CCC(=O)NC6=O)cc5)CC4)cc3)nc3[nH]ccc23)cn1` (centres unmarked) [Compound 44, N-(3-(4-(4-(2,6-dioxopiperidin-3-yl)phenyl)piperazin-1-yl)propyl)-4-((4-(1-propyl-JH-pyrazol-4-yl)-7H-pyrrolo[2,3-d]pyrimidin-2-yl)amino)benzamide], the results for the remaining activity at 0.1 µM on JAK3 and at GSPT1 were 74% and 81%, respectively. The “Target Protein Degradation (% remaining at 100 nM, 24 h) JAK1” value at JAK1 is listed as 104 % remaining. Moreover, in the assay with JAK2, the “Target Protein Degradation (% remaining at 100 nM, 24 h) JAK2” value was 64 % remaining.

Regarding `CCS(=O)(=O)N1CC(CC#N)(n2cc(-c3nc(Nc4ccc(C(=O)NCC5CCN(c6ccc(C7CCC(=O)NC7=O)cc6)CC5)cc4)nc4[nH]ccc34)cn2)C1` (centres unmarked) [Compound 45, 4-((4-(1-(3-(cyanomethyl)-1-(ethylsulfonyl)azetidin-3-yl)-1H-pyrazol-4-yl)-7H-pyrrolo[2,3-d]pyrimidin-2-yl)amino)-N-((1-(4-(2,6-dioxopiperidin-3-yl)phenyl)piperidin-4-yl)methyl)benzamide], the remaining activity at 0.1 µM on JAK3 was determined as 29%; at GSPT1 it was 101%. On JAK1, the “Target Protein Degradation (% remaining at 100 nM, 24 h) JAK1” value came out at 107 % remaining. Also, in the assay on JAK2, the “Target Protein Degradation (% remaining at 100 nM, 24 h) JAK2” value is 21 % remaining.
